Experimental data: ChEMBL document CHEMBL1201862, “PubChem BioAssay data set” (2004)
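Assay format: 96-well plates, 48-hour exposure. The concentration for 50% growth inhibition is given as GI50.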 Calls of active or inactive are those of the source. No stated cut-off is given here; in the data, active = GI50 up to about 1.1 µM and inactive = higher.

How the values were obtained:
Assay in all cases: growth of human tumour cells (NCI), 48 h
[1] = system: A498
[2] = system: CAKI-1
[3] = system: DU-145
[4] = system: HT-29
[5] = system: IGROV-1
[6] = system: MCF7
[7] = system: MOLT-4
[8] = system: OVCAR-5
[9] = system: SK-MEL-5
[10] = system: SK-OV-3
[11] = system: SN12C
[12] = system: SW-620
[13] = system: TK-10
[14] = system: UACC-257
[15] = system: UACC-62
[16] = system: UO-31
[17] = system: OVCAR-4
[18] = system: RPMI-8226
[19] = system: SR

Measured: GI50

Cn1c(COC(=O)Nc2ccccc2)c(COC(=O)Nc2ccccc2)c2ccc3cc(Cl)c(Cl)cc3c21
active: [2] 1.06 µM | [7] 1.1 µM
inactive: [1] 1.65 µM | [3] 11.3 µM | [4] 8.02 µM | [5] 8.95 µM | [6] 2.14 µM | [8] 10.7 µM | [9] 4.62 µM | [10] 20.9 µM | [11] 4.07 µM | [12] 2.69 µM | [13] 9.4 µM | [14] 8.39 µM | [15] 6.24 µM | [16] 10.4 µM

CC1=C(C(=O)Nc2ccc(Cl)c(Cl)c2)C(c2ccco2)C(C(=O)Nc2ccc(Cl)c(Cl)c2)=C(C)N1
inactive: [1] 12.8 µM | [2] 14 µM | [4] 14.4 µM | [5] 14.3 µM | [7] 4.98 µM | [17] 12.1 µM | [8] 15.1 µM | [18] 7.16 µM | [9] 13.7 µM | [10] 13.5 µM | [11] 11.6 µM | [19] 10.6 µM | [12] 14.6 µM | [13] 6.44 µM | [14] 14.7 µM | [15] 12.9 µM | [16] 10.1 µM

CCOC(=O)/C(C#N)=C/c1ccnc2ccccc12
inactive: [1] > 100 µM | [2] > 100 µM | [3] > 100 µM | [4] > 100 µM | [5] 40.2 µM | [7] 63.5 µM | [17] > 100 µM | [8] > 100 µM | [18] 25.4 µM | [9] 31.7 µM | [10] > 100 µM | [11] 76.4 µM | [19] 2.28 µM | [12] 9.79 µM | [13] > 100 µM | [14] > 100 µM | [15] > 100 µM

CC(=O)Nc1ccc2cc3c(nc2n1)c1cccnc1n3S(=O)(=O)c1ccccc1
inactive: [1] > 100 µM | [2] > 100 µM | [4] > 100 µM | [5] > 100 µM | [6] > 100 µM | [7] > 100 µM | [17] > 100 µM | [8] > 100 µM | [18] 19.1 µM | [9] > 100 µM | [10] > 100 µM | [11] > 100 µM | [19] 28.3 µM | [12] > 100 µM | [13] > 100 µM | [14] > 100 µM | [15] > 100 µM
active: [16] 0.195 µM

CCOC(=O)CC(NC(=O)c1ccc(/N=N/N(C)C)cc1)C(=O)OCC (centres undefined)
inactive: [1] > 100 µM | [2] > 100 µM | [4] > 100 µM | [5] > 100 µM | [7] > 100 µM | [17] > 100 µM | [8] > 100 µM | [18] > 100 µM | [9] > 100 µM | [10] > 100 µM | [11] > 100 µM | [19] > 100 µM | [12] > 100 µM | [13] > 100 µM | [14] > 100 µM | [15] 63.4 µM | [16] > 100 µM

C[C@@H]1OC(=O)C[C@H]2CC(=O)N(CCc3cn(S(=O)(=O)C(F)(F)F)c4ccccc34)C[C@@H]21
inactive: [1] > 100 µM | [2] > 100 µM | [3] > 100 µM | [4] > 100 µM | [5] > 100 µM | [6] > 100 µM | [7] > 100 µM | [17] > 100 µM | [8] > 100 µM | [18] > 100 µM | [9] > 100 µM | [10] > 100 µM | [12] > 100 µM | [13] > 100 µM | [14] > 100 µM | [15] > 100 µM | [16] > 100 µM

O=C(Nc1ccc(Cl)cc1)NS(=O)(=O)c1c(-c2ccccc2)oc2ccccc2c1=O
inactive: [1] 33 µM | [2] 52.1 µM | [3] 27.9 µM | [4] 57.8 µM | [5] 83 µM | [7] 98.6 µM | [17] > 100 µM | [8] > 100 µM | [18] 58.9 µM | [9] > 100 µM | [10] > 100 µM | [11] > 100 µM | [19] 24.2 µM | [12] > 100 µM | [13] 23 µM | [14] > 100 µM | [15] 1.97 µM | [16] 38.5 µM

O=c1c2c(-c3ccccc3)onc2n(-c2ccccc2)c(=O)n1-c1ccccc1
inactive: [1] > 100 µM | [2] > 100 µM | [4] 21 µM | [5] 22.5 µM | [6] > 100 µM | [7] > 100 µM | [17] 32.8 µM | [8] 16.4 µM | [18] > 100 µM | [9] > 100 µM | [10] > 100 µM | [11] > 100 µM | [19] > 100 µM | [12] > 100 µM | [13] 14.5 µM | [14] 19.7 µM | [15] 14.5 µM | [16] 14.9 µM

O=C(/C=C/c1ccc(O)cc1)c1ccc2c(c1)OCO2
inactive: [1] 23.8 µM | [2] 4.56 µM | [3] 33.4 µM | [4] 13.4 µM | [5] 15.5 µM | [7] 13.5 µM | [17] 21.1 µM | [8] 27.4 µM | [9] 16 µM | [10] 26.1 µM | [11] 15.9 µM | [19] 10.2 µM | [12] 19.1 µM | [14] 18.6 µM | [15] 18.7 µM | [16] 18.1 µM

Clc1ccc2c(c1)CC1C[N+]3=C(CCCCC3)C1=C2 (centres undefined)
inactive: [1] 18.3 µM | [2] > 100 µM | [3] > 100 µM | [4] 37.8 µM | [5] 37.2 µM | [6] 64 µM | [7] > 100 µM | [17] 54.8 µM | [8] > 100 µM | [9] 30.3 µM | [10] > 100 µM | [11] 80.4 µM | [12] > 100 µM | [13] 69.2 µM | [14] 28.8 µM | [15] > 100 µM | [16] > 100 µM

CCN(CCCN(CC)C(=O)N[C@@H](Cc1ccccc1)C(=O)NC)C(=O)N[C@@H](Cc1ccccc1)C(=O)NC
inactive: [1] > 100 µM | [2] > 100 µM | [3] > 100 µM | [4] > 100 µM | [17] > 100 µM | [8] > 100 µM | [9] > 100 µM | [10] > 100 µM | [19] > 100 µM | [12] > 100 µM | [13] > 100 µM | [14] > 100 µM | [15] > 100 µM | [16] > 100 µM

O=C(Nn1c(-c2cccs2)nc2ccc(I)cc2c1=O)c1ccccc1
inactive: [2] 21.9 µM | [3] 20.6 µM | [4] 29.8 µM | [5] 20.2 µM | [7] 41.3 µM | [17] 23 µM | [8] 37.8 µM | [9] 21.9 µM | [11] 35.6 µM | [19] 23.6 µM | [12] 71.6 µM | [13] 30.3 µM | [15] 20.6 µM | [16] 28.3 µM
